Measured values taken from US4599351A (priority 1984, dated 1986).
Values after ≈ are worked out from the molar mass of the structure shown. Values joined by “and” are separate entries in the source; they are usually repeats but may differ in a detail not shown here. Identical values can stand only once.

Legend:
Phytophthora infestans = test: whole plant or invertebrate; format: in vivo
[1] = system: Pythium vexans Sensitive (Naturally Occurring); test: Fungitoxicity in V-8 juice agar, sensitive Pythium vexans (Example 7); format: cell-based; conditions: for IC50: Phytopythium vexans, V-8 juice agar, read-out: ED50, Pythium vexans Sensitive (Naturally Occurring)
Plasmopara viticola [2] = test: whole plant or invertebrate; format: in vivo
Plasmopara viticola [3] = test: Eradicant Grape Downy Mildew control (Example 4); format: in vivo
Method: Compounds of the invention were tested for the eradicant control of the Grape Downy Mildew organism Plasmopara viticola. Detached leaves of between 70 and 80 mm diameter of 7-week-old Vitis vinifera cultivar Emperor grape seedlings were used as hosts. The leaves were inoculated with the organism and placed in an environment chamber and incubated at 18° C.-22° C. and at about 100% relative humidity for 1 to 2 days. The leaves were then sprayed with a solution of the test compound in acetone, water and a small amount of a nonionic emulsifier. The sprayed leaves were then maintained at 18° C.-22° C. and at about 100% relative humidity. Seven to nine days after inoculation, the amount of disease control was determined. The percent disease control provided by the compound of Example 1 was based on the percent disease reduction relative to nontreated check plants.

Pythium vexans Resistant = test: microbe, parasite or virus in culture; format: cell-based; conditions: for ED50 Ratio R/S, Pythium vexans: ED50-resistant to ED50-sensitive; for IC50: Phytopythium vexans, read-out: ED50, Pythium vexans Resistant; for ED50 against resistant fungi (in words): resistant mutant strains of Pythium ultimum or Pythium vexans, agar studies
[4] = system: Pythium ultimum Sensitive (Naturally Occurring); test: Fungitoxicity in V-8 juice agar, sensitive Pythium ultimum (Example 7); format: cell-based; conditions: for IC50: Globisporangium ultimum, V-8 juice agar, read-out: ED50, Pythium ultimum Sensitive (Naturally Occurring)
[5] = system: Pythium ultimum Resistant; test: microbe, parasite or virus in culture; format: cell-based; conditions: for ED50 Ratio R/S, Pythium ultimum: ED50-resistant to ED50-sensitive; for IC50: Globisporangium ultimum, read-out: ED50, Pythium ultimum Resistant
[6] = Phytophthora infestans, in Solanum lycopersicum, read-out: Fungicidal Efficacy, TLB (percent disease control)
[7] = Table II Test 5, 6.4 ppm, infection in check plants 60%
[8] = Table II Test 5, 16 ppm, infection in check plants 60%
[9] = Table II Test 5, 40 ppm, infection in check plants 60%
[10] = Plasmopara viticola, in Vitis vinifera, read-out: Fungicidal Efficacy, GDM (percent disease control)
[11] = Table II Test 4, 16 ppm, infection in check plants 63%
[12] = Table II Test 4, 40 ppm, infection in check plants 63%
[13] = Table II Test 4, 100 ppm, infection in check plants 63%
[14] = Table II Test 4, 250 ppm, infection in check plants 63%

Structure (SMILES)	pest or weed control at 250 ppm (Phytophthora infestans; [6]) [%]	IC50 [1] [µg/mL]	pest or weed control at 250 ppm (Plasmopara viticola [2]; [10]) [%]	ED50 Ratio R/S, Pythium vexans (Pythium vexans Resistant)	IC50 (Pythium vexans Resistant) [µg/mL]	IC50 [4] [µg/mL]	ED50 Ratio R/S, Pythium ultimum [5]	IC50 [5] [µg/mL]	other results
CCCCC(=O)N(c1c(C)cccc1C)C1CCOC1=O (stereo not shown) [3-(N-valeryl-N-2,6-dimethylphenylamino)-gamma-butyrolactone]	96	0.1 (≈ 0.346 µM)	100	400	40 (≈ 138 µM)				Percent Control of TLB (Phytophthora infestans; [7]): 8%; Percent Control of TLB (Phytophthora infestans; [8]): 28%; Percent Control of TLB (Phytophthora infestans; [9]): 42%; Percent Control of GDM (Plasmopara viticola [2]; in vivo): 100% and 60% and 54%; fungicidal activity toward Grape Downy Mildew (in words) (Plasmopara viticola [2]; in vivo): unexpectedly high fungicidal activity toward Grape Downy Mildew; percent disease control (eradicant) (Plasmopara viticola [3]; 40 ppm): 92%; percent disease control (eradicant) (Plasmopara viticola [3]; 100 ppm): 100%; ED50 against resistant fungi (in words) (Pythium vexans Resistant): substantially better ED50's against resistant fungi than the compounds where R^1 has less than 3 carbon atoms
CCCCCC(=O)N(c1c(C)cccc1C)C1CCOC1=O (stereo not shown) [(CH2)4 CH3]	91	0.56 (≈ 1.85 µM)	100	29	16 (≈ 52.7 µM)				Percent Control of TLB (Phytophthora infestans; [7]): 7%; Percent Control of TLB (Phytophthora infestans; [8]): 3%; Percent Control of TLB (Phytophthora infestans; [9]): 37%; base ED50 relative to Grape Downy Mildew producing fungi (natural), versus R^1 is propyl or butyl compounds (Plasmopara viticola [2]; in vivo): four to ten times higher than the R^1 is propyl or butyl compounds; ED50 R/S ratio (in words) (Pythium vexans Resistant; Table III): excellent; effect of acquired Control resistance on fungitoxicity (in words) (Pythium vexans Resistant; Table III, resistant mutants of Pythium ultimum and/or Pythium vexans): substantially less affected by the acquired Control resistance than any of the compounds in Table III; ED50 against resistant fungi (in words) (Pythium vexans Resistant): excellent
CCC(=O)N(c1c(C)cccc1C)C1CCOC1=O (stereo not shown) [C2 H5]	23	> 1		< 140	140 (≈ 536 µM)	0.26 (≈ 0.995 µM)	808	210 (≈ 804 µM)	Percent Control of TLB (Phytophthora infestans; [11]): 0%; Percent Control of TLB (Phytophthora infestans; [12]): 0%; Percent Control of TLB (Phytophthora infestans; [13]): 54%; Percent Control of TLB (Phytophthora infestans; [14]): 80%; ED50 relative to the R^1 is butyl compound, P. vexans (sensitive) ([1]; comparison in words): more than ten times; ED50 relative to the R^1 is propyl compound, P. vexans (sensitive) ([1]; comparison in words): more than two times; ED50 relative to the R^1 is propyl compound, P. ultimum (sensitive) ([4]; comparison in words): more than ten times; ED50 relative to the R^1 is propyl compound, P. ultimum (resistant) ([5]; comparison in words): more than twice the ED50 for the R^1 is propyl compound; ED50 R/S ratio (in words) (Pythium vexans Resistant; Table III): very good; ED50 relative to the R^1 is butyl compound, P. vexans (resistant) (Pythium vexans Resistant; comparison in words): more than three times that of the R^1 is butyl compound; ED50 relative to the R^1 is propyl compound, P. vexans (resistant) (Pythium vexans Resistant; comparison in words): more than three times that of the R^1 is propyl compound
Cc1cccc(C)c1N(C(=O)C(C)(C)C)C1CCOC1=O (stereo not shown) [C(CH3)3]	0								
CCCC(=S)N(c1c(C)cccc1C)C1CCOC1=O (stereo not shown) [CH2 CH2 CH3, Y = O, Z = S]	96		100						
CCCC(=O)N(c1c(C)cccc1C)C1CCSC1=O (stereo not shown) [CH2 CH2 CH3, Y = S, Z = O, 3-(N-butyryl-2,6-dimethylanilino)-butyrothiolactone]	35		99						
Cc1cccc(C)c1N(C(=O)CC(C)C)C1CCOC1=O (stereo not shown) [CH2 CH(CH3)2]	0		96						
Cc1cccc(C)c1N(C(=O)CCl)C1CCOC1=O (stereo not shown) [CH2 Cl, reference compound]		0.19 (≈ 0.674 µM)		763	145 (≈ 515 µM)	0.005 (≈ 0.0177 µM)	24,000	120 (≈ 426 µM)	
COCC(=O)N(c1c(C)cccc1C)C1CCOC1=O (stereo not shown) [CH2 OCH3, reference compound]		0.15 (≈ 0.541 µM)			400 (≈ 1440 µM)	0.005 (≈ 0.018 µM)	160,000	800 (≈ 2880 µM)	
CC(=O)N(c1c(C)cccc1C)C1CCOC1=O (stereo not shown) [CH3]									pest or weed control at 100 ppm (Phytophthora infestans; [6]): 79%; pest or weed control at 100 ppm (Plasmopara viticola [2]; [10]): 42%
Cc1cccc(C)c1N(C(=O)C(C)C)C1CCOC1=O (stereo not shown) [CH(CH3)2]	23		0						
COCC(=O)N(c1c(C)cccc1C)C(C)C(=O)OC (stereo not shown) [CONTROL, N-methoxyacetyl-N-(1-methoxycarbonylethyl)-2,6-dimethylaniline, reference compound]		0.075 (≈ 0.268 µM)		8,467	635 (≈ 2270 µM)	0.036 (≈ 0.129 µM)	26,000	940 (≈ 3370 µM)	
CCCC(=O)N(c1c(C)cccc1C)C1CCOC1=O (stereo not shown) [Example 1, 3-(N-butyryl-N-2,6-dimethylphenylamino)-gamma-butyrolactone]	99	0.43 (≈ 1.56 µM)	100	100	43 (≈ 156 µM)	0.02 (≈ 0.0726 µM)	4,750	95 (≈ 345 µM)	Percent Control of TLB (Phytophthora infestans; [11]): 0%; Percent Control of TLB (Phytophthora infestans; [12]): 48%; Percent Control of TLB (Phytophthora infestans; [13]): 76%; Percent Control of TLB (Phytophthora infestans; [14]): 94%; fungicidal activity toward Grape Downy Mildew (in words) (Plasmopara viticola [2]; in vivo): unexpectedly high fungicidal activity toward Grape Downy Mildew; percent disease control (eradicant) (Plasmopara viticola [3]; 40 ppm): 100%; percent disease control (eradicant) (Plasmopara viticola [3]; 100 ppm): 100%; percent disease control (eradicant) (Plasmopara viticola [3]; 250 ppm): 100%; ED50 against resistant fungi (in words) (Pythium vexans Resistant): substantially better ED50's against resistant fungi than the compounds where R^1 has less than 3 carbon atoms
